This passage reports Emax and EC50 results from patent US20260098026A1, “M4 ACTIVATORS/MODULATORS AND USES THEREOF” (Cerevel Therapeutics, LLC, priority 2022, published 2026).

Common to all, as to type: cell-based
Assay [1] concerns the target T1, M1 muscarinic acetylcholine receptor (mAChR) (Homo sapiens, UniProt P11229).
T1 construct: expressed in transfected cells; host or cells: CHO-K1
T1 sequence (P11229 1-460): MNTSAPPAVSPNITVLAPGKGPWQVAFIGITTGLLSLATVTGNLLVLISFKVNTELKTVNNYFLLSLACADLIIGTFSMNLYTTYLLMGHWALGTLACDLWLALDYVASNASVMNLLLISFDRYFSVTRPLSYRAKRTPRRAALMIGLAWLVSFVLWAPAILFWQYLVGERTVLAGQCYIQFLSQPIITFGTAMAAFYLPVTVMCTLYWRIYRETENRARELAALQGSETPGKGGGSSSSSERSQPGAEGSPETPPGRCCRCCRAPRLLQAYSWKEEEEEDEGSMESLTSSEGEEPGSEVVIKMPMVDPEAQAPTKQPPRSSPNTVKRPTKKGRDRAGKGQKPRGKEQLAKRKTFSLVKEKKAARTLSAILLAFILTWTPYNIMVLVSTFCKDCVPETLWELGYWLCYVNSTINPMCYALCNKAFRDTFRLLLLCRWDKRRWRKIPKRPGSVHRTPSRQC
As to the kind of experiment: FLIPR calcium assay (Fluo 8), M1-overexpressing CHO-K1 cells. Particulars: FLIPR calcium. The method, then:
Stimulation of a Gq-coupled G-protein coupled receptors (GPCRs), result in an efflux of calcium from the endoplasmic reticulum to the cytoplasm (Berridge, 1993), thus rendering this assay appropriate for the assessment of M1, M3 and M5 receptors. CHO-K1 cells overexpressing the M1, M3, or M5 muscarinic acetylcholine receptor (mAChR) were dispensed at 15,000 cells per well in 30 μl volume to 384-well plates and grown overnight at 37° C. in a 5% CO2 atmosphere. Fluo-8 Solution, 10 μl per well, was added to each well and incubated for 30 minutes at 37° C. in a 5% CO2 atmosphere. Compounds diluted in Hanks' balanced salt solution (HBSS) were transferred to the cell assay plate at 10 μl per well, and then read on a FLIPR instrument. EC50 and Emax figures were calculated from the resulting data for each receptor subtype.

Assay [2] concerns the target T2, M3 muscarinic acetylcholine receptor (mAChR) (Homo sapiens, UniProt P20309).
T2 construct: expressed in transfected cells; host or cells: CHO-K1
Kind of assay: FLIPR calcium assay (Fluo 8), M3-overexpressing CHO-K1 cells. Put shortly:
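CHO-K1 cells overexpressing each human receptor seeded at 15,000 per well, grown overnight at 37° C., 5% CO2, then loaded with Fluo-8 for 30 min. Compounds in HBSS added and calcium response read on FLIPR; EC50 and Emax calculated per subtype.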

In another assay the target is T3, M4 mAChR (Homo sapiens, UniProt P08173).
T3 construct: expressed in transfected cells; host or cells: CHO-K1
T3 sequence (P08173 1-479): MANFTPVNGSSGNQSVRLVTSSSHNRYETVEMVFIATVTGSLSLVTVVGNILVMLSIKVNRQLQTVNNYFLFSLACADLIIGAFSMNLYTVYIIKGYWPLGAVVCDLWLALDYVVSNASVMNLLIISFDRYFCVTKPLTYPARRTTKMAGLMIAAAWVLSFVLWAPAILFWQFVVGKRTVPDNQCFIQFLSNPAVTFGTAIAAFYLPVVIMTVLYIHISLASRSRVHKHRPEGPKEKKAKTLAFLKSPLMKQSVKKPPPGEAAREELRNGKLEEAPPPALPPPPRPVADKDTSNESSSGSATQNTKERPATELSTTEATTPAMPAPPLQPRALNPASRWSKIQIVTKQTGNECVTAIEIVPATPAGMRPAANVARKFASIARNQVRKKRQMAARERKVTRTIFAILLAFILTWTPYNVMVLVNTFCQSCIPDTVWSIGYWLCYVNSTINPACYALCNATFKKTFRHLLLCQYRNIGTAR
Kind of assay: cAMP TR-FRET assay with forskolin, M4-overexpressing CHO-K1 cells. In short, it runs like this:
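CHO-K1 cells overexpressing the receptor were stimulated with forskolin to raise cAMP, so that Gi-mediated agonist decreases could be measured. cAMP was quantified by TR-FRET competition between cellular cAMP and labelled donor for anti-cAMP antibody, giving potency and efficacy.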
For orientation: Time-resolved FRET reads energy transfer from a long-lived donor to a nearby acceptor.

T2 sequence (P20309 whole entry): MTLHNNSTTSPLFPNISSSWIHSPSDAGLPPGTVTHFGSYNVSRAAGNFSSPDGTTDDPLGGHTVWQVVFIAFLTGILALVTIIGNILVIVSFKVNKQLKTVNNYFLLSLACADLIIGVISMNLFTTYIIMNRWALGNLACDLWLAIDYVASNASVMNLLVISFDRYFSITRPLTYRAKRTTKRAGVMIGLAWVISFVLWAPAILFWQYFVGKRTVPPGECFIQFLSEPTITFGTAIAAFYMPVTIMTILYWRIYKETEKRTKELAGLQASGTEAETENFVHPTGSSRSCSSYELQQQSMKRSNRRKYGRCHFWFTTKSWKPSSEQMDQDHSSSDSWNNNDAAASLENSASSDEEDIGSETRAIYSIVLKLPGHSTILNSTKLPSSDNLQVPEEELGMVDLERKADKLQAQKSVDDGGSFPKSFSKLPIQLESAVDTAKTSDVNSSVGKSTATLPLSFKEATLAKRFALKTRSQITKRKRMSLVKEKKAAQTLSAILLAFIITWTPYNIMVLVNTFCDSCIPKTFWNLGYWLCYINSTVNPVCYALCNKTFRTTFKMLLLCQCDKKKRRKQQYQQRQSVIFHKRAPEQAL

By Emax is commonly meant the size of the effect at its maximum, as opposed to the concentration needed. One may read the EC50 as the concentration that produces a half-maximal response. As for `CCOC(=O)N1CC2(CC[C@@H](N3CCN(c4cc(F)cnc4-c4ccc(F)nc4)CC3)C2)C1` [Compound A2, ethyl (6R)-6-[4-[5-fluoro-2-(6-fluoro-3-pyridyl)-3-pyridyl]piperazin-1-yl]-2-azaspiro[3.4]octane-2-carboxylate], the values for the maximal response (Emax) (in assay [1]; at M4 mAChR (cAMP TR-FRET with forskolin)) were 19 to 49.9% and 80 to 100%, respectively. The EC50 in assay [2] (FLIPR calcium) was greater than 10 µM.
In the case of `CCOC(=O)N1CC2(CC[C@@H](N3CCN(c4cccnc4N4CCCC4)CC3)C2)C1` [Compound A3, ethyl (6R)-6-[4-(2-pyrrolidin-1-yl-3-pyridyl)piperazin-1-yl]-2-azaspiro[3.4]octane-2-carboxylate], the maximal response (Emax) in assay [1] lay in the range of 19 to 49.9%. The EC50 in assay [2] (FLIPR calcium) was greater than 10 µM.
`CCOC(=O)N1CC2(CC[C@@H](N3CCN(c4cc(F)cnc4-c4cccnc4OCC)CC3)C2)C1` [Compound A49]: the values for the Emax (in assay [1]; on M4 mAChR (cAMP TR-FRET with forskolin)) were 50 to 79.9% and 80 to 100%, respectively. In assay [2] (FLIPR calcium), the EC50 is greater than 10 µM.
In the case of `CCOC(=O)N1CC2(CC[C@@H](N3CCN(c4cc(F)cnc4-c4cnc5c(c4)ncn5C)CC3)C2)C1` [Compound A51], the Emax in assay [1] was 19 to 49.9%; at M4 mAChR (cAMP TR-FRET with forskolin) it was 80 to 100%. Moreover, in assay [2] (FLIPR calcium), the EC50 is greater than 10 µM.
With `CCOC(=O)N1CC2(CC[C@@H](N3CCN(c4cc(F)cnc4-c4ccncc4)CC3)C2)C1` [Compound A53], the maximal response (Emax) lay in the range of 19 to 49.9% in assay [1] and 80 to 100% at M4 mAChR (cAMP TR-FRET with forskolin). Also, in assay [2] (FLIPR calcium), the half-maximal effective concentration (EC50) is greater than 10 µM.
`CCOC(=O)N1CC2(CC[C@@H](N3CCN(c4cc(F)cnc4-c4cncs4)CC3)C2)C1` [Compound A59]: the Emax in assay [1] is 19 to 49.9%; on M4 mAChR (cAMP TR-FRET with forskolin), 80 to 100%. The EC50 in assay [2] (FLIPR calcium) is greater than 10 µM.
The corresponding values for `CCOC(=O)N1CC2(CC[C@@H](N3CCN(c4cc(F)cnc4-c4ccnn4C)CC3)C2)C1` [Compound A67] are 19 to 49.9%, 80 to 100% and greater than 10 µM.
The corresponding values for `CCOC(=O)N1CC2(CC[C@@H](N3CCN(c4cc(F)cnc4-c4cn/c(=N\C)[nH]c4)CC3)C2)C1` [Compound A70] are 19 to 49.9%, 80 to 100% and greater than 10 µM.
For the compound `CCOC(=O)N1CC2(CC[C@@H](N3CCN(c4cc(F)cnc4-c4ccc(NC(C)=O)nc4)CC3)C2)C1` [Compound A75], the Emax was in the range of 19 to 49.9% in assay [1] and 80 to 100% at M4 mAChR (cAMP TR-FRET with forskolin). Besides, the EC50 in assay [2] (FLIPR calcium) is greater than 10 µM.
As for `CCOC(=O)N1CC2(CC[C@@H](N3CCN(c4cc(F)cnc4-c4cncc(O)c4)CC3)C2)C1` [Compound A82], the figures for the maximum response (Emax) (in assay [1]; at M4 mAChR (cAMP TR-FRET with forskolin)) were 19 to 49.9% and 80 to 100%, respectively. Also, in assay [2] (FLIPR calcium), the EC50 is greater than 10 µM.
Consider `CCOC(=O)N1CC2(CC[C@@H](N3CCN(c4cc(F)cnc4-c4cnc(NC(C)C)nc4)CC3)C2)C1` [Compound A87], for which the Emax in assay [1] fell in the range of 19 to 49.9%; at M4 mAChR (cAMP TR-FRET with forskolin), 80 to 100%. The concentration giving a half-maximal response (EC50) in assay [2] (FLIPR calcium) is greater than 10 µM.
Consider `CCOC(=O)N1CC2(CC[C@@H](N3CCN(c4cc(F)cnc4-c4ccnn4CC)CC3)C2)C1` [Compound A93], for which the Emax in assay [1] lay in the range of 19 to 49.9%; at M4 mAChR (cAMP TR-FRET with forskolin), 80 to 100%. Moreover, the EC50 in assay [2] (FLIPR calcium) was greater than 10 µM.
In the case of `CCOC(=O)N1CC2(CC[C@@H](N3CCN(c4cc(F)cnc4-c4cnc5ccnn5c4)CC3)C2)C1` [Compound A100], the maximum response (Emax) in assay [1] is 19 to 49.9%; at M4 mAChR (cAMP TR-FRET with forskolin), 80 to 100%. For the same compound, the EC50 in assay [2] (FLIPR calcium) is greater than 10 µM.
With `CCOC(=O)N1CC2(CC[C@@H](N3CCN(c4cc(F)cnc4-c4ccc(C(=O)NC)cc4)CC3)C2)C1` [Compound A103], the figures for the maximal response (Emax) (in assay [1]; on M4 mAChR (cAMP TR-FRET with forskolin)) were 19 to 49.9% and 80 to 100%, respectively. Further, the concentration giving a half-maximal response (EC50) in assay [2] (FLIPR calcium) is greater than 10 µM.
The corresponding values for `CCOC(=O)N1CC2(CC[C@@H](N3CCN(c4cc(F)cnc4-c4ccccc4O)CC3)C2)C1` [Compound A104] are 19 to 49.9%, 80 to 100% and greater than 10 µM.
For the compound `CCOC(=O)N1CC2(CC[C@@H](N3CCN(c4cc(F)cnc4-c4cnoc4C)CC3)C2)C1` [Compound A113], the Emax in assay [1] lay within 19 to 49.9%; at M4 mAChR (cAMP TR-FRET with forskolin), 80 to 100%. The 50% effective concentration (EC50) in assay [2] (FLIPR calcium) is greater than 10 µM.
For the compound `CCOC(=O)N1CC2(CC[C@@H](N3CCN(c4cc(F)cnc4-c4cnc(C(F)(F)F)cn4)CC3)C2)C1` [Compound A250], the EC50 in assay [2] (FLIPR) was greater than 10 µM. For the same compound, the maximum response (Emax) on M4 mAChR (cAMP assay) was in the range of 80 to 100%.
